Measured values taken from patent US20140045746A1 (Merck Sharp & Dohme Corp., priority 2012, published 2014).

What was measured:
hGPR40 [1] = molecular target: T1, hGPR40 (Homo sapiens, UniProt O14842); assay: GPR40 FLIPR assay (agonist-induced calcium mobilization); assay type: cell-based; parameters: expressed in transfected cells; host or cells: CHO cells stably expressing NFAT BLA (beta-lactamase); conditions: GPR40/CHO NFAT BLA cells;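 also: calcium mobilization in the cells read as fluorescence of fluo-4 AM loaded cells on FLIPR after compound addition, cells preloaded with dye 100 min at room temperature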
Description: Human and mouse GPR40 stable cell-lines were generated in CHO cells stably expressing NFAT BLA (Beta-lactamase). […] The expression plasmids were transfected using lipofectamine (Life Technologies) following manufacturer's instructions. Stable cell-lines were generated following drug selection.
FLIPR (Fluorimetric Imaging Plate Reader, Molecular Devices) assays were performed to measure agonist-induced calcium mobilization of the stable clones. For the FLIPR assay, one day before assay, GPR40/CHO NFAT BLA cells were seeded into black-wall-clear-bottom 384-well plates (Costar) at 1.4×10e4 cells/20 μL medium/well. The cells were incubated with 20 μl/well of the assay buffer (HBSS, 0.1% BSA, 20 mM HEPES, 2.5 mM probenecid, pH 7.4) containing 8 μM fluo-4, AM, 0.08% pluronic acid at room temperature for 100 minutes. Fluorescence output was measured using FLIPR. Compounds were dissolved in DMSO and diluted to desired concentrations with assay buffer. 13.3 μL/well of compound solution was added.

hGPR40 [2] = molecular target: T1, hGPR40; assay: GPR40 Inositol Phosphate Turnover (IP1) Assay; assay type: cell-based; parameters: expressed in transfected cells; host or cells: HEK cells stably expressing the aequorin reporter; conditions: HEK cells stably expressing human GPR40; 0% serum; read-out: hGPR40 IP1 EC50 (0% serum)
Description: A human GPR40 stable cell-line was generated in HEK cells stably expressing the aequorin expressing reporter.
The assay is performed in 96-well format. HEK cells stably expressing human GPR^40 are plated to be 60-80% confluent within 72 h. After 72 h, the plates are aspirated and the cells washed with inositol-free DMEM (ICN). The wash media is replaced with 150 μL of 3H-inositol labeling media (inositol-free media containing 0.4% human albumin or 0.4% mouse albumin, 1× pen/strep antibiotics, glutamine, 25 mM HEPES to which is added 3H-myo-inositol NEN #NET114A 1mCi/mL, 25 Ci/mmol diluted 1:150 in loading media with a final specific radioactivity of 1 μCi/150 μL). Alternatively, the human and mouse albumin can be added after the overnight labeling step before the addition of LiCl.
The assay is typically run the next day after 18 h labeling. On the day of the assay, 5 μL, of 300 mM LiCl is added to all wells and incubated at 37 degrees for 20 min. 0.75 μL of 200× compounds are added and incubated with the cells for 60 min at 37 degrees. The media is then aspirated off and the assay terminated with the addition of 60 nI, 10 mM formic acid. The cells are lysed for 60 min at room temperature. 15-30 nI, of lysate is mixed with 70 mL/1 mg YSi SPA beads (Amersham) in clear bottom Isoplates. The plates are shaken for 2 h at room temperature. Beads are allowed to settle and the plates are counted in the Wallac Microbeta.

T1 sequence (O14842 whole entry): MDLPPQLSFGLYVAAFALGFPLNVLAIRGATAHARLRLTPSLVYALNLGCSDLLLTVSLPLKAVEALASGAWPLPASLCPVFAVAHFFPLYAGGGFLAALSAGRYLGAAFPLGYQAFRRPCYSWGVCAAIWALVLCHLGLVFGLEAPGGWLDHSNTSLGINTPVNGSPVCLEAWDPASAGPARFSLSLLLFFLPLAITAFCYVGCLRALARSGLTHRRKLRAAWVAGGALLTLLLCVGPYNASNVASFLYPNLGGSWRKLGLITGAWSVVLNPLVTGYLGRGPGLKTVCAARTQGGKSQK

| EC50 (hGPR40 [1]) [nM] | EC50 (hGPR40 [2]) [nM] | Compound |
| --- | --- | --- |
| 160 | 7.3 | Cc1cc(CCCCS(C)(=O)=O)cc(C)c1-c1ccc(F)c(COc2cc3c(cn2)[C@H]2[C@@H](C3)[C@@H]2C(=O)O)c1 [Compound 19-16, (5aR,6S,6aS)-3-((4-fluoro-2′,6′-dimethyl-4′-(4-(methylsulfonyl)butyl)-[1,1′-biphenyl]-3-yl)methoxy)-5,5a,6,6a-tetrahydrocyclopropa[4,5]cyclopenta[1,2-c]pyridine-6-carboxylic acid] |
| 36 | 5.5 | Cc1cc(CCCC(C)(C)O)cc(C)c1-c1ccc(F)c(COc2cc3c(cn2)[C@H]2[C@@H](C3)[C@@H]2C(=O)O)c1 [Compound 19-19, (5aR,6S,6aS)-3-((4-fluoro-4′-(4-hydroxy-4-methylpentyl)-2′,6′-dimethyl-[1,1′-biphenyl]-3-yl)methoxy)-5,5a,6,6a-tetrahydrocyclopropa[4,5]cyclopenta[1,2-c]pyridine-6-carboxylic acid] |
| 99 | 175 | Cc1nc(OC2CCC(C(C)(C)O)CC2)ccc1-c1ccc(F)c(COc2cc3c(cn2)[C@H]2[C@@H](C3)[C@@H]2C(=O)O)c1 (stereo partly drawn) [Compound 20-8, (5aR,6S,6aS)-3-((2-fluoro-5-(6-((4-(2-hydroxypropan-2-yl)cyclohexyl)oxy)-2-methyl-pyridin-3-yl)benzyl)oxy)-5,5a, 6,6a-tetrahydro-cyclopropa[4,5] cyclopenta[1,2-c] pyridine-6-carboxylic acid] |
| 11 | 6.2 | CC(C)(O)CCCOc1cc(C(F)(F)F)c(-c2ccc(F)c(COc3cc4c(cn3)[C@H]3[C@@H](C4)[C@@H]3C(=O)O)c2)cn1 [Compound 21-7, 3-((2-fluoro-5-(6-((4-hydroxy-4-methylpentyl)oxy)-4-(trifluoromethyl)pyridin-3-yl)benzyl)oxy)-5,5a,6,6a-tetrahydrocyclopropa[4,5]cyclopenta[1,2-c]pyridine-6-carboxylic acid] |
| 15 | 6.2 | CC(C)(O)CCCOc1cc(C(F)(F)F)c(-c2cccc(COc3cc4c(cn3)[C@H]3[C@@H](C4)[C@@H]3C(=O)O)c2)cn1 [Compound 21-8, (5aR,6S,6aS)-3-((3-(6-((4-hydroxy-4-methylpentyl)-oxy)-4-(trifluoromethyl)-pyridin-3-yl)benzyl)oxy)-5,5a,6,6a-tetrahydrocyclo-propa[4,5]cyclopenta [1,2-c]pyridine-6-carboxylic acid] |

The remaining lines, values behind:

| Compound | EC50 (hGPR40 [1]) [nM] | EC50 (hGPR40 [2]) [nM] |
| --- | --- | --- |
| Cc1cc(OCCCS(C)(=O)=O)cc(C)c1-c1cc(COc2cc3c(cn2)[C@H]2[C@@H](C3)[C@@H]2C(=O)O)c(F)cc1F [Compound 12-9, (5aR,6S,6aS)-3-((4,6-difluoro-2′,6′-dimethyl-4′-(3-(methylsulfonyl)-propoxy)-[1,1′-biphenyl]-3-yl)methoxy)-5,5a,6,6a-tetrahydrocyclo-propa[4,5] cyclopenta[1,2-c] pyridine-6-carboxylic acid] | 26 | 3.7 |
| Cc1nc(OCCCS(C)(=O)=O)ccc1-c1cc(COc2cc3c(cn2)[C@H]2[C@@H](C3)[C@@H]2C(=O)O)ccc1C(F)(F)F [Compound 12-10, (5aR,6S,6aS)-3-((3-(2-methyl-6-(3-(methylsulfonyl)propoxy)-pyridin-3-yl)-4-(trifluoromethyl)benzyl)oxy)-5,5a,6,6a-tetrahydrocyclo-propa[4,5] cyclopenta[1,2-c] pyridine-6-carboxylic acid] | 36 | 19 |
| CC(C)(O)COc1cc(C(F)(F)F)c(-c2cccc(COc3cc4c(cn3)[C@H]3[C@@H](C4)[C@@H]3C(=O)O)c2)cn1 [Compound 13-7] | 78 | 14 |
| CC(C)(O)COc1cc(C(F)(F)F)c(-c2ccc(F)c(COc3cc4c(cn3)[C@H]3[C@@H](C4)[C@@H]3C(=O)O)c2)cn1 [Compound 13-8, (5aR,6S,6aS)-3-((2-fluoro-5-(6-(2-hydroxy-2-methylpropoxy)-4-(trifluoromethyl)pyridin-3-yl)benzyl)oxy)-5,5a,6,6a-tetrahydrocyclopropa[4,5] cyclopenta[1,2-c]pyridine-6-carboxylic acid] | 59 | 3.7 |
| Cc1cc(OCC(O)CO)cc(C)c1-c1ccc(F)c(COc2cc3c(cn2)[C@H]2[C@@H](C3)[C@@H]2C(=O)O)c1 (stereo partly drawn) [Compound 14-4, (5aR,6S,6aS)-3-((4′-(2,3-dihydroxypropoxy)-4-fluoro-2′,6′-dimethyl-[1,1′-biphenyl]-3-yl)methoxy)-5,5a,6,6a-tetrahydrocyclopropa[4,5]cyclopenta[1,2-c]pyridine-6-carboxylic acid] | 32 | 6.2 |
| Cc1cc(OCC(C)(CO)CO)cc(C)c1-c1ccc(F)c(COc2cc3c(cn2)[C@H]2[C@@H](C3)[C@@H]2C(=O)O)c1 [Compound 15-6, (5aR,6S,6aS)-3-((4-fluoro-4′-(3-hydroxy-2-(hydroxymethyl)-2-methylpropoxy)-2′,6′-dimethyl-[1,1′-biphenyl]-3-yl)methoxy)-5,5a,6,6a-tetrahydrocyclopropa [4,5]cyclopenta[1,2-c] pyridine-6-carboxylic acid] | 46 | 14 |
| Cc1cc(OCC2CC(F)(F)C2)cc(C)c1-c1cccc(COc2cc3c(cn2)[C@H]2[C@@H](C3)[C@@H]2C(=O)O)c1 [Compound 16-8, (5aR,6S,6aS)-3-((4′-((3,3-difluorocyclobutyl)methoxy)-2′,6′-dimethyl-[1,1′-biphenyl]-3-yl)methoxy)-5,5a,6,6a-tetrahydrocyclopropa[4,5]cyclopenta[1,2-c]pyridine-6-carboxylic acid] | 20 | 55 |
| Cc1cc(OCCC2CC(F)(F)C2)cc(C)c1-c1ccc(F)c(COc2cc3c(cn2)[C@H]2[C@@H](C3)[C@@H]2C(=O)O)c1 [Compound 16-9, (5aR,6S,6aS)-3-((4′-(2-(3,3-difluorocyclobutyl)ethoxy)-4-fluoro-2′,6′-dimethyl-[1,1′-biphenyl]-3-yl)methoxy)-5,5a,6,6a-tetrahydro-cyclopropa[4,5] cyclopenta[1,2-c] pyridine-6-carboxylic acid] | 19 | 45 |
| Cc1cc(OCCC2CC(F)(F)C2)cc(C)c1-c1cccc(COc2cc3c(cn2)[C@H]2[C@@H](C3)[C@@H]2C(=O)O)c1 [Compound 16-10, (5aR,6S,6aS)-3-((4′-(2-(3,3-difluorocyclobutyl)ethoxy)-2′,6′-dimethyl-[1,1′-biphenyl]-3-yl)methoxy)-5,5a, 6,6a-tetrahydro-cyclopropa[4,5] cyclopenta[1,2-c] pyridine-6-carboxylic acid] | 15 | 57 |
| CO/N=C(\C)CCCOc1cc(C)c(-c2cccc(COc3cc4c(cn3)[C@H]3[C@@H](C4)[C@@H]3C(=O)O)c2)c(C)c1 [Compound 17-5, (5aR,6S,6aS)-3-((4′-(((E)-4-(methoxyimino)pentyl)oxy)-2′,6′-dimethyl-[1,1′-biphenyl]-3-yl)methoxy)-5,5a,6,6a-tetrahydrocyclopropa[4,5]cyclopenta[1,2-c]pyridine-6-carboxylic acid] | 13 | 98 |
| CO/N=C(\C)CCCOc1ccc(-c2cccc(COc3cc4c(cn3)[C@H]3[C@@H](C4)[C@@H]3C(=O)O)c2)c(C)c1 [Compound 17-6, (5aR,6S,6aS)-3-((4′-(((E)-4-(methoxyimino)pentyl)oxy)-2′-methyl-[1,1′-biphenyl]-3-yl)methoxy)-5,5a,6,6a-tetrahydro-cyclopropa [4,5]cyclopenta [1,2-c]pyridine-6-carboxylic acid] | 13 | 29 |
| Cc1cc(OCCCN2CC(F)(F)C2)cc(C)c1-c1cccc(COc2cc3c(cn2)[C@H]2[C@@H](C3)[C@@H]2C(=O)O)c1 [Compound 18-4, (5aR,6S,6aS)-3-((4′-(3-(3,3-difluoroazetidin-1-yl)propoxy)-2′,6′-dimethyl-[1,1′-biphenyl]-3-yl)methoxy)-5,5a,6,6a-tetrahydrocyclopropa[4,5]cyclopenta[1,2-c]pyridine-6-carboxylic acid] | 16 | 26 |
| Cc1cc(CCC(C)(C)O)cc(C)c1-c1ccc(F)c(COc2cc3c(cn2)[C@H]2[C@@H](C3)[C@@H]2C(=O)O)c1 [Compound 19-6, (5aR,6S,6aS)-3-((4-fluoro-4′-(3-hydroxy-3-methylbutyl)-2′,6′-dimethyl-[1,1′-biphenyl]-3-yl)methoxy)-5,5a,6,6a-tetrahydrocyclopropa[4,5]cyclopenta[1,2-c]pyridine-6-carboxylic acid] | 20 | 4 |
| CC(C)(O)CCOc1cc(C(F)(F)F)c(-c2ccc(F)c(COc3cc4c(cn3)C3C(C4)C3C(=O)O)c2)cn1 (centres unmarked) [Compound 20-5, 3-((2-fluoro-5-(6-(3-hydroxy-3-methylbutoxy)-4-(trifluoromethyl)pyridin-3-yl)benzyl)oxy)-5,5a,6,6a-tetrahydrocyclopropa[4,5]cyclopenta[1,2-c]pyridine-6-carboxylic acid] | 76 | 15 |
| CC(C)(O)CCOc1cc(C(F)(F)F)c(-c2cccc(COc3cc4c(cn3)[C@H]3[C@@H](C4)[C@@H]3C(=O)O)c2)cn1 [Compound 20-6, (5aR,6S,6aS)-3-((3-(6-(3-hydroxy-3-methylbutoxy)-4-(trifluoromethyl)pyridin-3-yl)benzyl)oxy)-5,5a,6,6a-tetrahydro-cyclopropa[4,5] cyclopenta[1,2-c] pyridine-6-carboxylic acid] | 19 | 4.9 |
| Cc1cccc(C)c1-c1ccc(F)c(COc2cc3c(cn2)[C@H]2[C@@H](C3)[C@@H]2C(=O)O)c1 [Compound 22-2] | 49 | 26 |
| O=C(O)C1C2Cc3cc(OCc4cc(-c5ccccc5C(F)(F)F)ccc4F)ncc3C21 (centres unmarked) [Compound 22-3, 3-((4-fluoro-2′-(trifluoromethyl)-[1,1′-biphenyl]-3-yl)methoxy)-5,5a,6,6a-tetrahydrocyclo-propa[4,5]cyclopenta[1,2-c]pyridine-6-carboxylic acid] | 36 | 35 |
